Experimental data from patent publication US20100120730A1, “6-BENZYL-2,3,4,7-TETRAHYDRO-INDOLO [2,3-C] QUINOLINE COMPOUNDS USEFUL AS PDE5 INHIBITORS” (NYCOMED GmbH, priority 2007, published 2010).

Tests used:
human PDE5 = target: T1, human PDE5 (Homo sapiens, UniProt O76074); assay: Inhibition of PDE5 activity (modified SPA test, human platelet lysate); assay type: biochemical; settings: PDE5-containing human platelet lysate, 0.5 μM cGMP substrate, 37° C.
T1 construct: from tissue; host or cells: human platelets from fresh donor blood (10,000 g supernatant of sonified platelets)
Method in brief: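 Human platelet lysate (10,000 g supernatant) as PDE5 source; SPA with 0.5 μM cGMP plus [3H]cGMP tracer, 20 mM Tris pH 7.4, 5 mM Mg2+, 1 μM motapizone and 10 nM BAY-60-7550; 5 min preincubation at 37° C., 15 min reaction, stopped with SPA beads containing IBMX. IC50 by non-linear regression.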

| melting point [°C] | IC50 (human PDE5) [nM] | Structure (SMILES) |
| --- | --- | --- |
| 130 to 131 | 3.16 | CC1(C)Cc2nc(Cc3cc(F)cc(F)c3)c3[nH]c4ccccc4c3c2[C@@H](O)C1 [Example 86, (S)-6-(3,5-Difluoro-benzyl)-3,3-dimethyl-2,3,4,7-tetrahydro-1H-indolo[2,3-c]quinolin-1-ol] |
| 123 to 126 | 3.89 | CC1(C)Cc2nc(Cc3cccc(F)c3)c3[nH]c4ccccc4c3c2[C@@H](O)C1 [Example 93, (S)-6-(3-Fluoro-benzyl)-3,3-dimethyl-2,3,4,7-tetrahydro-1H-indolo[2,3-c]quinolin-1-ol] |
| 124 to 127 | 15.1 | CC1(C)Cc2nc(Cc3cccc(Cl)c3)c3[nH]c4ccccc4c3c2[C@@H](O)C1 [Example 94, (S)-6-(3-Chloro-benzyl)-3,3-dimethyl-2,3,4,7-tetrahydro-1H-indolo[2,3-c]quinolin-1-ol] |
